Assay results reported in patent US20100028293A1, “Agents for control of codling moth in fruit orchards” (Efal Chemical Industries Ltd., priority 2004, published 2010).

Key:
[1] = test system: codling moth adults; experiment: Cage bioassay, paired traps with synthetic compounds versus water/ethanol control trap; format: in vivo, Cydia pomonella; settings: for attractiveness to the adult insects (insects caught in trap): individual compounds at the concentrations detected in the leaf extracts, paired with control trap of water and ethanol, 60 adults, overnight, decreasing order: methyl salicylate and theaspirane mixture, linalool, benzyl alcohol
Method: (i) Insects—Eggs of the CM Cydia pomonella L. were hatched at room temperature in a petri dish. The larvae were fed an artificial diet (Manduca Premix-Heliothis Premix, Stonefly Inc., Brvan, Tex.), kept at 25±0.5° C., 60±1% relative humidity and a photoperiod of 16:8 h (L:D) until the fifth instar larvae, which were transferred to corrugated paper strips (2 cm^2). Upon emergence, adult insects of mixed sex and age (within 2 days) were used for the cage bioassays.
(v) Cage bioassays—Trapping tests were conducted in screen cages (96×68×45 cm) in the laboratory at room temperature (23° C.±3° C.) based on the method of Zhu et al. (2003). Sixty codling moth adults of mixed sex and ages (2 days after pupal emergence) were released into a cage containing the traps with different treatments. […] A Whatman paper wick (10 cm long) was used as a dispenser. To examine the effects of adding recombinant BGL1 to the leaf extract, four traps were constructed and put into the same cage. The first trap contained 10 ml of leaf extract with the addition of recombinant BGL1. The second trap contained the same amount of leaf extract with the addition of glucoimidazole. The third trap contained only leaf extract and the fourth trap contained water. The insects caught in the traps, or around the trap, were counted 12 h after their release. The insects around the trap were defined as follows: the space of the screen cage was divided equally into four parts. Each trap was put in the center of each part. The number of the insects present in each specific space, not including the ones inside the trap, was obtained in the experiments. To test the attractiveness of the synthetic compounds, traps were made with the individual chemicals that were first dissolved in ethanol at the concentrations determined by the SPME-GC-MS analyses in leaf extracts treated with BGL1. The final concentration of ethanol was 0.01%. Each trap was kept in the cage with only a control water trap including 0.01% ethanol. The experiments were conducted overnight (from 9 pm to 9 am) to cover their active time before the twilight in the early morning. […] This experiment was replicated 3 times. The traps were randomly arranged in the replications to avoid possible position effect of the traps. The studies on sex ratios of trapped insects were skipped because of complicated involvement of insect pheromones.

[2] = test system: endogenous β-glucosidase in apple leaf extracts; experiment: Quantitative β-glucosidase activity assay with pNPG as substrate; format: biochemical, Malus domestica; settings: 2 μM glucoimidazole added to leaf homogenate
Method: (ii) Apple leaf extract treatments—Apple (cv. Anna) spurs with both leaves and fruit were excised from a commercial orchard in the suburb of Rehovot, Israel, in June 2004. The leaves were excised from the spurs, rinsed with double distilled water (DDW) and then dried with filter paper. Dried leaves were homogenized in liquid nitrogen. Three times the weight of ice-cold extraction buffer containing 10 mM EDTA and 4 mM DTT in 50 mM citrate buffer, pH 4.3, was added to the leaf homogenate (4-5 g per treatment). The mixture was then rotated for 1 h at 4° C. and centrifuged at 16,000 g for 5 min. The supernatant (10 ml per treatment) was collected. In one treatment, 1 unit of recombinant A. niger BGL1 produced in P. pastoris (Dan et al., 2000) was added and the solution was kept at 37° C. for 4 h. In another treatment, 2 μM glucoimidazole (a β-glucosidase inhibitor) was added to the leaf homogenate immediately after the addition of the extraction buffer in order to block any endogenous β-glucosidase activity. Quantitative β-glucosidase activity was assayed using p-nitrophenyl-β-D-glucopyranoside (pNPG) as the substrate according to Shoseyov et al (1990).

## OCc1ccccc1 [benzyl alcohol]
[1]
  attractiveness to the adult insects (insects caught in trap): more attractive than water

## C=CC(C)(O)CCC=C(C)C (stereo not shown) [linalool]
[1]
  attractiveness to the adult insects (insects caught in trap): more attractive than water

## OC[C@@H]1[C@@H](O)[C@H](O)[C@@H](O)c2nccn21 [glucoimidazole]
[2]
  β-glucosidase activity in the leaf extract after treatment: undetectable levels

## CCCCCCCCO [1-octanol, reference compound]
[1]; 1-octanol alone or added to other compounds
  effect on the behavior of codling moth adults: does not have a significant effect
[1]; trap with 70 ng m^−1 1-octanol
  insects caught in trap: did not catch any insects

## CC(C)=CCC/C(C)=C/CO [geraniol]
[1]; 39.4 ng ml^−1
  repellent effect on codling moth adults: exhibited a repellent effect

## COC(=O)c1ccccc1O [methyl salicylate]
[1]
  attractiveness to the adult insects (insects caught in trap): more attractive than water
